According to patent publication US10913734B2, “Substituted aminothiazoles” (BARUCH S. BLUMBERG INSTITUTE, priority 2016, dated 2021):

Experiments:
[1] = MTT cell viability / cytotoxicity assay (CC50), 72 hours; type: cell-based; details: human, 72 hours incubation, concentration that reduces signal of viable cells by 50%, table title names Huh-7, THLE2 and PH5CH cells, cell line not given
From the text: (§1) Huh-7 cells and derived from hepatocellular carcinoma cells, and were donated by Dr. Xuanyong Lu, (Drexel University College of Medicine, Doylestown, Pa.). THLE-2 were purchased from American Type Culture Collection (Manassas, Va.). PH5CH were donated by Dr. Masayuki Noguchi (University of Tsukuba, Ibaraki, Japan). THLE-2 and PH5CH have been immortalized through stable transfection of the SV40 large T antigen in normal hepatocytes, and are thus cell lines that are representative of normal hepatocytes rather than HCC cells. […] All cell lines were cultured and maintained in 5% CO2 at 37° C. Huh-7 were maintained in the culture media DMEM/F12 (Dulbecco's Modified Eagle Medium) with 10% Fetal bovine serum (FBS), 100 µg/mL penicillin, 100 units/mL streptomycin, and 50 µg/mL normocin. THLE-2 and PH5CH were maintained in the culture media Brochial Epithelial Growth Media (BEGM) with 10% FBS, 100 µg/mL penicillin, 100 units/mL streptomycin, with the following additives form the prepackaged kit: Bovine pituitary extract (BPE), insulin, hydrocortisone, retinoic acid, transferrin, triiodothyronine, supplemented with 5 ng/ml human epidermal growth factor and 70 ng/ml phosphoethanolamine (Lonza Walkersville Inc., Walkersville, Md.).
(§2) Huh7 cells were plated on 96-well plates at 2.0×10^4 cells per well to permit grow in the presence of compounds of the disclosure. Compounds of the disclosure were prediluted and transferred to cell plates by automated liquid handling. Cells were incubated with compounds of the disclosure for 72 hours, after which culture growth and viability were assessed by addition of 50 µg/mL 3-(4,5-Dimethyl-2-thiazolyl)-2,5-diphenyl-2H-tetrazolium bromide (MTT) incubation for 4 hours at 37° C. Solubilization buffer (0.01M HCl, 10% SDS) was added followed by incubation at 37° C. overnight. Absorbance was measured at 570 nm (reference 630 nm). Compound of the disclosure were tested in Huh7, THLE-2 and PH5CH, over eight-point dilutions in half-log steps, testing 50.0, 16.6, 5.0, 1.66, 0.5, 0.166, 0.05, and 0.016 µM in 0.5% DMSO, with each concentration in duplicate wells. […] Each compound was tested from 2 to 7 times in separate assay trials.

[2] = system: THLE2 and/or PH5CH (normal hepatocyte-derived) cell versus Huh7; assay: Selectivity of cytotoxicity: CC50 in normal hepatocyte-derived cells versus liver cancer derived cells (MTT assay); type: cell-based; details: ratio of CC50 between Huh7 and THLE2 and/or PH5CH (normal hepatocyte-derived) cell
From the text: as §1
as §2, with “nm).” for “nm). Compound of the disclosure were tested in Huh7, THLE-2 and PH5CH, over eight-point dilutions in half-log steps, testing 50.0, 16.6, 5.0, 1.66, 0.5, 0.166, 0.05, and 0.016 µM in 0.5% DMSO, with each concentration in duplicate wells.”
Selectivity of toxicity in HCC-derived cells over normal liver-derived cells is important for the purposes of developing a therapy that specifically targets the cancer with low toxcity for the […]. The Selective Index (SI) is the ratio of CC50 in normal cells (THLE2 or PHSCH) over the CC50 in the liver cancer derived cells; thus, the higher the number, the lower the potential toxicity at an efficacious dose.
Selectivity in table 6 is defined as the ratio of CC50 between Huh7 and THLE2 and/or PH5CH (normal hepatocyte-derived) cell.

Row | Structure (SMILES) | CC50 at 72 h [1] | Selectivity [2]
1 | c1ccc(-c2csc(NCc3ncccn3)n2)nc1 [Entry 2] | < 50 µM | ≤5.0
2 | O=C(Nc1ncccn1)Nc1nc(-c2ccccn2)cs1 [Entry 3] | ≥ 50 µM | ≤5.0
3 | CCOC(=O)c1sc(Nc2nccc(C)n2)nc1-c1ncccc1C [Entry 4] | ≥ 50 µM | ≤5.0
4 | CCOC(=O)c1sc(NCc2ncccn2)nc1-c1ncccc1C [Entry 5] | ≥ 50 µM | ≤5.0
5 | CCOCc1sc(Nc2ncccn2)nc1-c1ccccn1 [Entry 6] | < 50 µM | >5.0
6 | CCOCc1sc(Nc2nccc(C)n2)nc1-c1ccccn1 [Entry 7] | < 50 µM | ≤5.0
7 | CCOCc1sc(NCc2ncccn2)nc1-c1ccccn1 [Entry 8] | ≥ 50 µM | ≤5.0
8 | CCOC(=O)CCc1sc(Nc2ncccn2)nc1-c1ccccn1 [Entry 9] | < 50 µM | >5.0
9 | CCOC(=O)CCc1sc(NCc2ncccn2)nc1-c1ccccn1 [Entry 10] | ≥ 50 µM | ≤5.0
10 | O=C(O)CCc1sc(Nc2ncccn2)nc1-c1ccccn1 [Entry 11] | < 50 µM | ≤5.0
11 | O=C([O-])CCc1sc(Nc2ncccn2)nc1-c1ccccn1.[Na+] [Entry 12] |  | ≤5.0
12 | O=C(O)CCc1sc(NCc2ncccn2)nc1-c1ccccn1 [Entry 13] | ≥ 50 µM | ≤5.0
13 | O=C([O-])CCc1sc(NCc2ncccn2)nc1-c1ccccn1.[Na+] [Entry 14] |  | ≤5.0
14 | CCOC(=O)Cc1sc(Nc2ncccn2)nc1-c1ccccn1 [Entry 15] | < 50 µM | >5.0
15 | CCOC(=O)Cc1sc(NCc2ncccn2)nc1-c1ccccn1 [Entry 16] | < 50 µM | ≤5.0
16 | CCOC(=O)c1sc(NCc2ncccn2)nc1-c1ccccn1 [Entry 17] | ≥ 50 µM | ≤5.0
17 | CCOC(=O)Cc1sc(Nc2nccc(C)n2)nc1-c1ccccn1 [Entry 18] | < 50 µM | ≤5.0
18 | CC(C)OC(=O)c1sc(Nc2ncccn2)nc1-c1ncccn1 [Entry 19] | < 50 µM | >5.0
19 | CCOC(=O)c1sc(Nc2ncccn2)nc1-c1cnccn1 [Entry 20] | < 50 µM | >5.0
20 | CC(C)OC(=O)c1sc(Nc2ncccn2)nc1-c1ccccn1 [Entry 21] | < 50 µM | >5.0
21 | CC(C)OC(=O)C1=C(c2ccncn2)NC(Nc2ncccn2)S1 (stereo not drawn) [Entry 22] | < 50 µM | >5.0
22 | CCOC(=O)c1sc(Nc2ncccn2)nc1-c1ccncn1 [Entry 23] | < 50 µM | >5.0
23 | CCOC(=O)c1sc(Nc2ncccn2)nc1-c1cc(C(F)(F)F)ccn1 [Entry 24] | < 50 µM | >5.0
24 | CC(C)OC(=O)c1sc(Nc2ncccn2)nc1-c1cnccn1 [Entry 25] | < 50 µM | >5.0
25 | CC(C)OC(=O)OCN(c1ncccn1)c1nc(-c2cnccn2)c(C(=O)OC(C)C)s1 [Entry 26] | < 50 µM | >5.0
26 | CC(C)OC(=O)c1sc(N(COP(=O)(OC(C)(C)C)OC(C)(C)C)c2ncccn2)nc1-c1ccccn1 [Entry 27] | < 50 µM | >5.0
27 | CC(C)OC(=O)c1sc(N(COP(=O)(OC(C)(C)C)OC(C)(C)C)c2ncccn2)nc1-c1cnccn1 [Entry 28] | < 50 µM | >5.0
28 | COCCOCN(c1ncccn1)c1nc(-c2cnccn2)c(C(=O)OC(C)C)s1 [Entry 29] | ≥ 50 µM | ≤5.0
